# Data reported in patent publication US8497256B2, “Formulations and uses of 2-hydroxy-5-phenylazobenzoic acid derivatives for the treatment of males” (Salix Pharmaceuticals, Ltd, priority 2010, dated 2013).
# Structures can show the parent of a compound that is named as a salt. Where two headings read alike, the source gives them in different places. Marks after values point to notes of the source that are not given here.
# Key:
# Ames test = assay type: cell-based; conditions: in vitro
# Description: (§1) For a 50 kg person of average height this dose represents 2.5 times the recommended human dose on a body surface area basis. Balsalazide disodium was not genotoxic in the following in vitro or in vivo tests: Ames test, human lymphocyte chromosomal aberration test, and mouse lymphoma cell (L5178Y/TK+/−) forward mutation test, or mouse micronucleus test. However, it was genotoxic in the in vitro Chinese hamster lung cell (CH V79/HGPRT) forward mutation test.
# (§2) The compound 4-aminobenzoyl-β-alanine, a metabolite of balsalazide disodium, was not genotoxic in the Ames test and the mouse lymphoma cell (L5178Y/TK+/−) forward mutation test but was positive in the human lymphocyte chromosomal aberration test. N-acetyl-4-aminobenzoyl-β-alanine, a conjugated metabolite of balsalazide disodium, was not genotoxic in Ames test, the mouse lymphoma cell (L5178Y/TK+/−) forward mutation test, or the human lymphocyte chromosomal aberration test.
# human lymphocyte = experiment: Human lymphocyte chromosomal aberration test; assay type: cell-based; conditions: in vitro
# Description: as §1, §2
# [1] = test system: mouse lymphoma cell (L5178Y/TK+/−); experiment: Mouse lymphoma cell forward mutation test; assay type: cell-based; conditions: in vitro
# Description: as §1, §2
# CYP1A2 [2] = target: T1, CYP1A2 (Homo sapiens, UniProt P05177); conditions: microsomes
# T1 sequence (P05177 1-516): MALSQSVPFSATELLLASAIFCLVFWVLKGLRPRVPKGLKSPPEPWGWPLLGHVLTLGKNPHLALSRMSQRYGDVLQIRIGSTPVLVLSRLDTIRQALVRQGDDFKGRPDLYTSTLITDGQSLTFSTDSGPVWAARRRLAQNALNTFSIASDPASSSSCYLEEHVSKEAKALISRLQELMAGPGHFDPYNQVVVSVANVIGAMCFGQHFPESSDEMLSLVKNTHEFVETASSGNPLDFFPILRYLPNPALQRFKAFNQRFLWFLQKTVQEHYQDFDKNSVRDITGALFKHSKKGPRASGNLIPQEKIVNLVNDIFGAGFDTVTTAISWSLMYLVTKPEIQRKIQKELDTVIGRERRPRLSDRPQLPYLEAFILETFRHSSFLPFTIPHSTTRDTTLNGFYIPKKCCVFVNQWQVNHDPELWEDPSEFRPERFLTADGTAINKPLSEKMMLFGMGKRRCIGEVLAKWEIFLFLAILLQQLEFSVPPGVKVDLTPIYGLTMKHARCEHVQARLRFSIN
# CYP2C9 [3] = target: T2, CYP2C9 (Homo sapiens, UniProt P11712); conditions: microsomes
# T2 sequence (P11712 whole entry): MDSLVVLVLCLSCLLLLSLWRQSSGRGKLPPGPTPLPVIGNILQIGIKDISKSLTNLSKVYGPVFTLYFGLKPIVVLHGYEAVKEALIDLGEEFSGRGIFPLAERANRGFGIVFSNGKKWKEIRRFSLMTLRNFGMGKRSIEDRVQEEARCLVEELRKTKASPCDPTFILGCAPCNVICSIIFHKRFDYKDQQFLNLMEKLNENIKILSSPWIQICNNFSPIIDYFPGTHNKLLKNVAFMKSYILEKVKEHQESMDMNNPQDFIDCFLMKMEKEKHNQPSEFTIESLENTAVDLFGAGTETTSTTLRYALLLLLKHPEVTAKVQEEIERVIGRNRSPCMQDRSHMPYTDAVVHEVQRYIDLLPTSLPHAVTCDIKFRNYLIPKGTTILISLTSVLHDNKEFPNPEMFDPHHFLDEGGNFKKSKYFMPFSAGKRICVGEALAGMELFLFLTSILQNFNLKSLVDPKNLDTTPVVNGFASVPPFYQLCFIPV
# CYP2C19 [4] = target: T3, CYP2C19 (Homo sapiens, UniProt P33261); conditions: microsomes
# T3 sequence (P33261 whole entry): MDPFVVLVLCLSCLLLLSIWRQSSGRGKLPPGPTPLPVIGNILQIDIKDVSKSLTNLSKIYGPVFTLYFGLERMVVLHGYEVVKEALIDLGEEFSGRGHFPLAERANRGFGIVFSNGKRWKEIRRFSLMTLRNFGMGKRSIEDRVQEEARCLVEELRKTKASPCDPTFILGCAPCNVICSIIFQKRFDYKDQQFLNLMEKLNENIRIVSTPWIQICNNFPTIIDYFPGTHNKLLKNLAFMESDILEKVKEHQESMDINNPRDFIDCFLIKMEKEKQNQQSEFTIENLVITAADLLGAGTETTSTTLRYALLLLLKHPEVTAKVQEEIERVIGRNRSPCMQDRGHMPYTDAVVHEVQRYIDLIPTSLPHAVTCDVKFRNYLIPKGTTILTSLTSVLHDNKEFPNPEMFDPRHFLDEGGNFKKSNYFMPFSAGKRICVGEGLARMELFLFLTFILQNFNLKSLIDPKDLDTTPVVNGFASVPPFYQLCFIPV
# CYP2D6 [5] = target: T4, CYP2D6 (Homo sapiens, UniProt P10635); conditions: microsomes
# T4 sequence (P10635 whole entry): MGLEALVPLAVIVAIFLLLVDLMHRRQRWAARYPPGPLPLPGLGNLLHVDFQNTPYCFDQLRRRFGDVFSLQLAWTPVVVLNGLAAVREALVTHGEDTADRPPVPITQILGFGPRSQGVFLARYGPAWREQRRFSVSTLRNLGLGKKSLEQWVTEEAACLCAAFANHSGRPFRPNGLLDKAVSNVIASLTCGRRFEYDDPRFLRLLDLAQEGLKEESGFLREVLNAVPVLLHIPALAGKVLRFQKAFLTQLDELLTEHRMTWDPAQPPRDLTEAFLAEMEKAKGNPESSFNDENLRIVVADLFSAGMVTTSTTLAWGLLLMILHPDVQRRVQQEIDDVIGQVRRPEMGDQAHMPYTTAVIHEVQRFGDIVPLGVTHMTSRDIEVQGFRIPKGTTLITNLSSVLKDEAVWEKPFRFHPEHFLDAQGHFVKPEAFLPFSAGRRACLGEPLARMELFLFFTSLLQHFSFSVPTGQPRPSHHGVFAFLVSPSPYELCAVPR
# CYP3A4/5 [6] = conditions: microsomes
# [7] = cited from earlier work
# clinical [8] = experiment: clinical
# Description: Before further description and in order that the invention may be more readily understood, certain terms are first defined and collected here for convenience. Common pharmacologic term used herein refer are as follows: Tmax (time to maximum concentration); Cmax (observed maximum concentration); kel (slope of terminal linear portion of concentration/time curve); T1/2 (half-life of balsalazide calculated as: 0.693/Kel); AUC(last) (area under the curve to last quantifiable concentration as measured by the trapezoidal rule); and AUC(inf) (the AUC value extrapolated to infinity calculated as: AUC(inf)=AUC(last)+C(t)last/Kel where C(t) last is the last measurable concentration).
# [9] = human, in vivo, po, 3.3 g
# human plasma proteins [10] = test system: human plasma proteins
# clinical [11] = conditions: human, in vivo, po, 3.3 g, Median Tmax
# [12] = Food effect on pharmacokinetics, single 3.3 g dose of GIAZO; conditions: single dose 3.3 g GIAZO; for Change (reduction) of AUC0-∞ under fed conditions / Reduction of mean Cmax under fed conditions: high-fat meal vs fasted; for Tmax: human, plasma, po, 3.3 g, Median Tmax
# human plasma proteins [13] = experiment: Plasma protein binding
# CYP1A2 [14] = target: T1, CYP1A2; experiment: CYP inhibition in human liver microsomes
# CYP2C9 [15] = target: T2, CYP2C9; experiment: CYP inhibition in human liver microsomes
# CYP2C19 [16] = target: T3, CYP2C19; experiment: CYP inhibition in human liver microsomes
# CYP2D6 [17] = target: T4, CYP2D6; experiment: CYP inhibition in human liver microsomes
# CYP3A4/5 [18] = experiment: CYP inhibition in human liver microsomes
# [19] = Solubility of balsalazide disodium; assay type: physicochemical
# Description: It is a stable, odorless, orange to yellow, microcrystalline powder. […] Balsalazide disodium has the chemical name (E)-5-[[-4-[[(2-carboxyethyl) amino]carbonyl]phenyl]azo]-2-hydroxybenzoic acid, disodium salt, dihydrate (Molecular Weight: 437.32; Molecular Formula: C17H13N3O6Na2.2H2O).
# Each GIAZO tablet contains 1.1 g of balsalazide disodium, film-coated for oral delivery. Balsalazide disodium is insoluble in acid, but soluble at a pH of at least 4.5. […] The sodium content of each tablet is approximately 126 mg.
# Mesalamine is 5-aminosaliacylic acid and appears to act topically.
# [20] = Reproduction / fertility studies in rats; assay type: in vivo, rat; conditions: oral doses up to 2 g/kg/day
# Description: (§3) There are, however, no adequate and well-controlled studies in pregnant women. Because animal reproduction studies are not always predictive of human response, this drug should be used during pregnancy only if clearly needed.
# as §2
# [21] = Reproduction studies in rabbits; assay type: in vivo, rabbit; conditions: oral doses up to 2 g/kg/day
# Description: as §3
# [22] = 24-month rat carcinogenicity study; assay type: in vivo, rat (Sprague Dawley); conditions: 24 months, oral (dietary), doses up to 2 g/kg/day
# Description: as §1
# Mouse micronucleus test = conditions: in vivo
# Description: as §1
# [23] = test system: Chinese hamster lung cell (CH V79/HGPRT); assay type: cell-based
# Description: as §1
# [24] = human, in vivo, Terminal half-life
# [25] = repeated dose (Q12) 3.3 g as GIAZO, N = 18
# [26] = single dose 3.3 g as GIAZO, N = 18
smiles,measurement,setting,value
"Nc1ccc(C(=O)NCCC(=O)O)cc1 [4-ABA, 4-aminobenzoyl-β-alanine]","Genotoxicity, Ames test",Ames test,not genotoxic
same,"Genotoxicity, human lymphocyte chromosomal aberration test",human lymphocyte,positive
same,"Genotoxicity, mouse lymphoma cell (L5178Y/TK+/−) forward mutation test",[1],not genotoxic
same,Inhibition of CYP1A2,CYP1A2 [2],not shown to inhibit
same,Inhibition of CYP2C9,CYP2C9 [3],not shown to inhibit
same,Inhibition of CYP2C19,CYP2C19 [4],not shown to inhibit
same,Inhibition of CYP2D6,CYP2D6 [5],not shown to inhibit
same,Inhibition of CYP3A4/5,CYP3A4/5 [6],not shown to inhibit
same,Absorption of the released carrier component,[7]; largely eliminated in the feces,poorly absorbed
"Nc1ccc(O)c(C(=O)O)c1 [5-ASA, 5-aminosalicylic acid]",AUC(0-inf),"clinical [8]; human, in vivo",8500 ng·h/mL
same,"AUCtau, mean","clinical [8]; human, in vivo",2200 ng·h/mL
same,"Cmax, mean","clinical [8]; human, in vivo",500 ng/mL
same,Tmax,"clinical [8]; human, in vivo",12 h
same,half-life,"clinical [8]; human, in vivo, T1/2, mean",9.5 h
same,half-life,clinical [8]; [24],9.5 h
same,Inhibition of CYP1A2,CYP1A2 [2],not shown to inhibit
same,Inhibition of CYP2C9,CYP2C9 [3],not shown to inhibit
same,Inhibition of CYP2C19,CYP2C19 [4],not shown to inhibit
same,Inhibition of CYP2D6,CYP2D6 [5],not shown to inhibit
same,Median Tmax,[9],24 h
same,Binding to plasma proteins,human plasma proteins [10],43%
same,Tmax,clinical [11],12 h
same,Change (reduction) of AUC0-∞ under fed conditions,[12],46%
same,Reduction of mean Cmax under fed conditions,[12],65%
"CC(=O)Nc1ccc(O)c(C(=O)O)c1 [N-Ac-5-ASA, N-acetyl-5-aminosalyicylic acid]",Terminal half-life,clinical [8],10.5 h
same,"T1/2, mean",clinical [8]; repeated dose (Q12) 3.3 g as GIAZO,7.2 h
same,"AUCtau, mean",clinical [8]; [25],21000 ng·h/mL
same,"Cmax, mean",clinical [8]; [25],2200 ng/mL
same,"Tmax, median",clinical [8]; [25],10 h
same,Accumulation ratio based on AUC,"clinical [8]; repeated doses of 3.3 g GIAZO every 12 hours, steady-state vs single dose",3.6
same,Median time of peak plasma concentration (Tmax),"clinical [8]; single dose 3.3 g GIAZO, 18 healthy subjects",12 h
same,"AUC0-∞, mean",clinical [8]; [26],33500 ng·h/mL
same,"AUCtau, mean",clinical [8]; [26],5900 ng·h/mL
same,"Cmax, mean",clinical [8]; [26],1200 ng/mL
same,"Tmax, median",clinical [8]; [26],12 h
same,"T1/2, mean","clinical [8]; single dose 3.3 g as GIAZO, N = 17 where marked b",10.4^b hour
same,Mean % of dose excreted in urine over 12 hours,"clinical [8]; steady-state, 3.3 g GIAZO every 12 hours, healthy volunteers",15.6%
same,Percent of the oral dose measured in the blood / systemically absorbed,[7]; oral dose,~12%
same,Binding to plasma proteins,human plasma proteins [13],78%
same,Inhibition of CYP1A2,CYP1A2 [14],not shown to inhibit
same,Inhibition of CYP2C9,CYP2C9 [15],not shown to inhibit
same,Inhibition of CYP2C19,CYP2C19 [16],not shown to inhibit
same,Inhibition of CYP2D6,CYP2D6 [17],not shown to inhibit
same,Inhibition of CYP3A4/5,CYP3A4/5 [18],not shown to inhibit
same,Median Tmax,[12]; fasted,12 h
same,Change (reduction) of AUC0-∞ under fed conditions,[12],17%
same,Reduction of mean Cmax under fed conditions,[12],48%
same,Median Tmax,[12]; with a high fat meal,24 h
"O=C(O)CCNC(=O)c1ccc(/N=N/c2ccc(O)c(C(=O)O)c2)cc1 [balsalazide disodium, (E)-5-[[-4-[[(2-carboxyethyl)amino]carbonyl]phenyl]azo]-2-hydroxybenzoic acid, disodium salt, dihydrate]",Solubility in acid,[19]; acid,insoluble
same,Solubility in all other organic solvents,[19]; all other organic solvents,practically insoluble
same,Solubility in methanol and ethanol,[19]; methanol and ethanol,sparingly soluble
same,pH at which soluble,[19]; pH,at least 4.5
same,Water solubility,[19]; water,highly water-soluble
same,Solubility in water and isotonic saline,[19]; water and isotonic saline,freely soluble
same,Effect on fertility and reproductive performance,[20],no effect on fertility and reproductive performance
same,Impaired fertility or harm to the fetus,[20],no evidence of impaired fertility or harm to the fetus
same,Impaired fertility or harm to the fetus,[21],no evidence of impaired fertility or harm to the fetus
same,Tumorigenicity,[22],not tumorigenic
same,"Genotoxicity, Ames test",Ames test,not genotoxic
same,"Genotoxicity, human lymphocyte chromosomal aberration test",human lymphocyte,not genotoxic
same,"Genotoxicity, mouse lymphoma cell (L5178Y/TK+/−) forward mutation test",[1],not genotoxic
same,"Genotoxicity, mouse micronucleus test",Mouse micronucleus test,not genotoxic
same,"Genotoxicity, Chinese hamster lung cell (CH V79/HGPRT) forward mutation test",[23],genotoxic
O=C(O)CCNC(=O)c1ccc(/N=N/c2ccc(O)c(C(=O)O)c2)cc1 [balsalazide],AUC(0-inf),"clinical [8]; human, in vivo",1400 ng·h/mL
same,"T1/2, mean","clinical [8]; human, in vivo",1.9 h
same,Tmax,"clinical [8]; human, in vivo",0.5 h
same,AUC,"clinical [8]; human, in vivo, AUCtau, mean",1300 ng·h/mL
same,Cmax,"clinical [8]; human, in vivo, Cmax, mean",300 ng/mL
same,half-life,clinical [8]; [24],1.9 h
same,Inhibition of CYP1A2,CYP1A2 [2],not shown to inhibit
same,Inhibition of CYP2C9,CYP2C9 [3],not shown to inhibit
same,Inhibition of CYP2C19,CYP2C19 [4],not shown to inhibit
same,Inhibition of CYP2D6,CYP2D6 [5],not shown to inhibit
same,Inhibition of CYP3A4/5,CYP3A4/5 [6],not shown to inhibit
same,Binding to plasma proteins,human plasma proteins [13],≥ 99%
same,Change (reduction) of AUC0-∞ under fed conditions,[12],No significant changes
same,Reduction of mean Cmax under fed conditions,[12],44%
same,Tmax,[12]; fasted,0.5 h
same,Tmax,[12]; with a high fat meal,2 h
